Among the data in US20140248411A1, “SWEETNESS ENHANCER” (KOREA FOOD RESEARCH INSTITUTE, priority 2011, published 2014) are sweet taste intensity values, retold here.

What all share (assay type): in vivo
Test [1] in a line: Sensory evaluation on Met-Asn peptide. As for the experimental part:
Sensory evaluation was conducted to validate the role of Met-Asn peptide itself, without sugar binding thereto, on the sweetening effect. […] When a Met-Asn peptide+5% sucrose solution was presented as a sample, the sweet taste intensity thereof was 5.00±0.23, which was not shown to have a significant difference from that of the 5% sucrose solution. […] Accordingly, the sweetness effect of the fraction containing the Met-Asn peptide may be due to the sugar structure binding.

The nature of test [2]: Sensory evaluation, sweet taste enhancement of LHe with sodium cyclamate (15-point scale).
Procedure: In order to verify specificity of the sweet taste enhancement effect of LHe, a sweetener except sucrose was used as a sweet taste reference sample. […] In the experiment, panels well trained in the basic tastes participated, and the presented samples were maintained at room temperature. After having a taste of the reference sample, the mouth was rinsed with water, and then after having a taste of the sample, intensity of each basic taste was evaluated.
In order to verify specificity of the sweet taste enhancement effect of LHe, a sweetener, except sucrose, was used as a sweet taste reference sample.
Test [3] can be described thus: Sensory evaluation, sweet taste enhancement of LHe with sucrose (15-point scale).
Procedure: In order to more accurately verify the sweet taste enhancement effect of LHe, 2, 5, 10, and 15% sucrose solutions were used as sweet taste reference samples. An LHe solution (300 μg/mL) and an LHe+5% sucrose solution were presented as samples, and sweet taste intensities thereof were measured by a 15-point scale method. Here, the sweet taste intensities of sweet taste reference samples, 2, 5, 10, and 16% sucrose solutions were presented to be 2, 5, 10, and 15 points, respectively, according to the method of Meilgaard et al.
In order to more accurately verify the sweet taste enhancement effect of LHe, 2, 5, 10, and 15% sucrose solutions were used as sweet taste reference samples. A 300 μg/mL LHe solution and a 300 μg/mL LHe+5% sucrose solution were presented as samples, and sweet taste intensities thereof were measured by a 15-point scale method. Here, the sweet taste reference samples, 2, 5, 10, and 16% sucrose solutions were respectively presented to be 2, 5, 10, and 15 points according to the method of Meilgaard et al. (1987).

Met-Asn [Met-Asn peptide]: the sweet taste intensity in test [1] (Met-Asn peptide + 5% sucrose solution) is on record as 5.00±0.23; in test [1] (Met-Asn peptide itself, without sugar binding) it was 0.13±0.04.

Consider `O=S(=O)(O)NC1CCCCC1` [cyclamate, sodium cyclamate], for which the figures for the sweet taste intensity in test [2] (0.056% cyclamate reference sample) and in test [2] (0.14% cyclamate reference sample) were 2.00±0.00 and 5.00±0.00, respectively.

Take `OC[C@H]1O[C@@](CO)(O[C@H]2O[C@H](CO)[C@@H](O)[C@H](O)[C@H]2O)[C@@H](O)[C@@H]1O` [sucrose]: the sweet taste intensity in test [3] (2% sucrose reference sample) worked out at 2.00±0.00; in test [3] (5% sucrose reference sample), 5.00±0.00; in test [1] (5% sucrose reference sample) it was 5.00±0.00.
